Test results: patent US20240245647A1, “ISOMEROHYDROLASE INHIBITOR FOR TREATMENT OF ATROPHIC FORM OF AGE-RELATED MACULAR DEGENERATION AND STARGARDT DISEASE” (The Trustees of Columbia University in the City of New York, priority 2021, published 2024)

Tested on: retina
Experiment: Light-induced retinal damage (LIRD)
Assay type: in vivo, BALB/c mice
Details: 2 mg/kg, 10,000 lux 3 hr, 5 days post-LIRD
Procedure: FIG. 5. LIRD caused the degeneration in the retina and RPE, which was rescued by inhibitor at the dose of 2 mg/kg in BALB/c mice. (FIG. 5A) Representative histological analysis for the retinas of RPE65-61 injected mice 5 days post-LIRD. Retinal cross-sections of No LIRD Control, LIRD+Vehicle, and LIRD+inhibitor RPE65-61 from three groups were stained with H&E for morphological comparison, 40× magnification. (FIG. 5B) Representative OCT images of mice treated with RPE65-61. […] RPE: retinal pigment epithelium; IS: inner segment; OS: outer segment; ONL: outer nuclear layer; OPL: outer plexiform layer; INL: inner nuclear layer; IPL: inner plexiform layer; RNFL: retinal nerve fiber layer. Bars represent mean±SEM. with n=8 per group. Student's t-test. *P<0.05, **<0.01 and ***<0.001, ****<0.0001.
FIG. 6. […] (FIGS. 6A-B) Shown are representative images of the Western blot detection of rhodopsin protein expression and the correlating quantifications. (FIGS. 6C-D) Cone density was evaluated by immunofluorescence, representative confocal images of immunofluorescence labeling with Peanut Agglutinin Lectin (PNA) and the correlating quantifications, 40× magnification. […]
Mice were dark-adapted overnight with food and water ad libitum. […] The mice were returned to regular housing for 5 days and then the retinal damage was assessed. […]

## N=S(=O)(CCN)c1cccc(OCC2CCCCC2)c1 (racemic) [RPE65-61, (±)-(2-aminoethyl) (3-(cyclohexylmethoxy)phenyl) (imino)-λ^6-sulfanone]
  effect against LIRD (histology, ERG): protective effect
